The results in this text go back to paper PMC3708311 (Journal of medicinal chemistry, 2008).

Some results are limits rather than exact numbers.

In test [1] the target is Clk1 (Homo sapiens, UniProt P49759). The experiment in a line: Ambit kinase screen, single-point, Clk1. Particulars: read-out: percentage inhibition Clk1. In kind it is binding.
Test [2] deals with p-MLC in trabecular meshwork tissue. Description: Western blot analysis of p-MLC in TM tissue from perfused porcine eyes. Particulars: 25 µM, perfused at 15 mmHg for 5 h. A general note: A western blot detects proteins with antibodies after separation by electrophoresis.
The target of test [3] is T1, adrenergic receptor α1b (Homo sapiens, UniProt P35368).
T1 sequence (P35368 1-520): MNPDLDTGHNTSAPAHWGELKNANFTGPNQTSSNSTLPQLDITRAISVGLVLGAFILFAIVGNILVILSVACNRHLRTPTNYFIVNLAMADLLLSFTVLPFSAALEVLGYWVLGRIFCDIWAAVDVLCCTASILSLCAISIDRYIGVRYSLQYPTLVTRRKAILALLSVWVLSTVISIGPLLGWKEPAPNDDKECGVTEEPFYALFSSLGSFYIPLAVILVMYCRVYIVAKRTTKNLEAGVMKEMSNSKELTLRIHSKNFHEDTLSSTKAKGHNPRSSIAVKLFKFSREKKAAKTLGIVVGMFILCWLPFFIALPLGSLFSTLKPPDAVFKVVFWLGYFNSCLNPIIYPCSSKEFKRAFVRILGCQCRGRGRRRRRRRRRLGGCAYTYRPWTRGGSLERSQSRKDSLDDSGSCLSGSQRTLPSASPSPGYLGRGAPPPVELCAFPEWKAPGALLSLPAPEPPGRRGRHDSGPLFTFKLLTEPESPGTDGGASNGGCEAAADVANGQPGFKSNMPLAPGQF
Description: nonkinase panel, adrenergic receptor α1b. It counts as binding.

In test [4] the target is Akt3 (Homo sapiens, UniProt Q9Y243). Description: Ambit kinase screen, single-point, Akt3. In kind it is binding. Particulars: read-out: percentage inhibition Akt3.
Test [5] has as its target Clk4 (Homo sapiens, UniProt Q9HAZ1). The experiment in a line: Ambit kinase screen, single-point, Clk4. It counts as binding. Particulars: read-out: percentage inhibition Clk4.
Test [6] has as its system 353 kinases. The experiment in a line: profiling versus 353 kinases. It counts as binding. Particulars: 3 µM.
For test [7], the target named is T2, adrenergic receptor α2a (Homo sapiens, UniProt P08913).
T2 sequence (P08913 1-465): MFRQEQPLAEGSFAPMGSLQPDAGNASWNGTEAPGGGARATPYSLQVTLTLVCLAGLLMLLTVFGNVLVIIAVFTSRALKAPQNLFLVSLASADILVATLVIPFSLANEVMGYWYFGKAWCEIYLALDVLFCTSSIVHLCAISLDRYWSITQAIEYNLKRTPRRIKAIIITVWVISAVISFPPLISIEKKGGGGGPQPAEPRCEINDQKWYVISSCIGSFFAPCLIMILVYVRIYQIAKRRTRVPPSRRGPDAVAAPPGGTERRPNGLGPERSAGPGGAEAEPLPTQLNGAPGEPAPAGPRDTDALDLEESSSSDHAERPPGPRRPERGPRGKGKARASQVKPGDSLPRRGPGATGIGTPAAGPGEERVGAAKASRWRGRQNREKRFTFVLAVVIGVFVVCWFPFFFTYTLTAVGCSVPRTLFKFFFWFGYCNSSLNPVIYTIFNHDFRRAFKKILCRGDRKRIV
The experiment in a line: nonkinase panel, adrenergic receptor α2a. It counts as binding.

The target in test [8] is T3, adrenergic receptor α1a (Homo sapiens, UniProt P35348).
T3 sequence (P35348 1-466): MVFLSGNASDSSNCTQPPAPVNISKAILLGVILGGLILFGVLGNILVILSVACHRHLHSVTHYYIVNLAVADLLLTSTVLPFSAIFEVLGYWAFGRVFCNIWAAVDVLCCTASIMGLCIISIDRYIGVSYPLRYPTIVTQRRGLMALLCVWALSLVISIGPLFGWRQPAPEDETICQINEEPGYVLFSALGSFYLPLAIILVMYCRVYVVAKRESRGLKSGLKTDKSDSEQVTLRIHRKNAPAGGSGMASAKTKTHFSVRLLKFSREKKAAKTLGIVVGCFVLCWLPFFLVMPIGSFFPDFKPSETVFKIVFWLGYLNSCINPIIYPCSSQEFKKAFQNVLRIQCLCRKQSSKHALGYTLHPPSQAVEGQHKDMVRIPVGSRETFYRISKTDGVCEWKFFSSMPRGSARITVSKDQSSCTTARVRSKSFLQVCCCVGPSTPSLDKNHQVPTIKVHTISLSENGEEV
Description: nonkinase panel, adrenergic receptor α1a. In kind it is binding.

The target in test [9] is ROCK-II (Homo sapiens, UniProt O75116). Description: ROCK-II biochemical assay. Particulars: ROCK-II IC50, as given in text.
The target of test [10] is T4, Lats2 (Homo sapiens, UniProt Q9NRM7).
T4 sequence (Q9NRM7 1-1088): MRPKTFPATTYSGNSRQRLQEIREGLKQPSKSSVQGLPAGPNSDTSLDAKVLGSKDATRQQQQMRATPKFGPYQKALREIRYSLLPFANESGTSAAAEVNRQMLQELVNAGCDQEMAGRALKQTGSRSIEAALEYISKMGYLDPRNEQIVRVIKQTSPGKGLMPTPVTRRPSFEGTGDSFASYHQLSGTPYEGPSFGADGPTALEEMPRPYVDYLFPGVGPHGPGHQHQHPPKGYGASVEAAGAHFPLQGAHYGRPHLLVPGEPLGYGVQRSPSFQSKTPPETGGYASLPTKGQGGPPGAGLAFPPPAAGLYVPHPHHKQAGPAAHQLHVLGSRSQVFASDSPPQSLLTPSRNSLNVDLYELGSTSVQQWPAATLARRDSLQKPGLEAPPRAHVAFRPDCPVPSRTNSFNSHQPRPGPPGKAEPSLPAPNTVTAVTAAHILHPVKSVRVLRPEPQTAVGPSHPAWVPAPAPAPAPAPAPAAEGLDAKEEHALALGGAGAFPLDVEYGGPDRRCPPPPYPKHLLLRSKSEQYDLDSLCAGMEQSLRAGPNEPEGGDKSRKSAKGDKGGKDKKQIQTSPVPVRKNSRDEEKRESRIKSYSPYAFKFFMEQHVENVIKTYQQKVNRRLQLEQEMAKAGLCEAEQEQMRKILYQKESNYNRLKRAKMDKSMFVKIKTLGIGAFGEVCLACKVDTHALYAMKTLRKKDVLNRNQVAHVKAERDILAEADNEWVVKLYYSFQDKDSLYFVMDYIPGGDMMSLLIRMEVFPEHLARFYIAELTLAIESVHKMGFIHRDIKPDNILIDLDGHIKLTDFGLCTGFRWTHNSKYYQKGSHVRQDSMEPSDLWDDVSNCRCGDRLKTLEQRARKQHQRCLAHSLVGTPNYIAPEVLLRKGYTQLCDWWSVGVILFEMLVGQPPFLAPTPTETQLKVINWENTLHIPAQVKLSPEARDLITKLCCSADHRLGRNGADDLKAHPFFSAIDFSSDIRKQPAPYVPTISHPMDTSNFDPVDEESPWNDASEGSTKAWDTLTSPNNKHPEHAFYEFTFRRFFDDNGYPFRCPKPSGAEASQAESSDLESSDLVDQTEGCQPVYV
The experiment in a line: Ambit kinase screen, single-point, Lats2. It counts as binding. Particulars: read-out: percentage inhibition Lats2.

Test [11] has as its system myosin light chain bisphosphorylation (ppMLC). The experiment in a line: cell-based myosin light chain bisphosphorylation. Particulars: read-out: ppMLC cell-based IC50.
Test [12] relates to aqueous humor outflow facility from the trabecular meshwork. The experiment in a line: ex vivo aqueous humor outflow facility in perfused enucleated porcine eyes. Particulars: 25 µM continuous exposure, 2–5 h time points, p < 0.01, porcine eyes ex vivo.
Test [13] deals with Clk2 (Homo sapiens, UniProt P49760). Description: Ambit kinase screen, single-point, Clk2. In kind it is binding. Particulars: read-out: percentage inhibition Clk2.
Chain of Clk2 (P49760 whole entry): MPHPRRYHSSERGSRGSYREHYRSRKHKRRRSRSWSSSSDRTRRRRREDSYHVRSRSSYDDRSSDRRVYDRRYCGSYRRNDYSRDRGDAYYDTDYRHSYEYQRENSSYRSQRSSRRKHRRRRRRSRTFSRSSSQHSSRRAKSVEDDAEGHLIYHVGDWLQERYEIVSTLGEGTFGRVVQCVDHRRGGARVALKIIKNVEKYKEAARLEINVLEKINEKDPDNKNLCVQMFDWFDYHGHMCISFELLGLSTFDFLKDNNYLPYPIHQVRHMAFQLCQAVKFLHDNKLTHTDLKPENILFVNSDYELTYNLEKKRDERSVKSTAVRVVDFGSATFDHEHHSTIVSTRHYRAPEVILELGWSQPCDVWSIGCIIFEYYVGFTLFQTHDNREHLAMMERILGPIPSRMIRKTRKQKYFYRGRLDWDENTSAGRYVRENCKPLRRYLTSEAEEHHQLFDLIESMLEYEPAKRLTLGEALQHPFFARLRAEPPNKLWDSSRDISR

Chain of Clk1 (P49759 whole entry, the tested form may be a part): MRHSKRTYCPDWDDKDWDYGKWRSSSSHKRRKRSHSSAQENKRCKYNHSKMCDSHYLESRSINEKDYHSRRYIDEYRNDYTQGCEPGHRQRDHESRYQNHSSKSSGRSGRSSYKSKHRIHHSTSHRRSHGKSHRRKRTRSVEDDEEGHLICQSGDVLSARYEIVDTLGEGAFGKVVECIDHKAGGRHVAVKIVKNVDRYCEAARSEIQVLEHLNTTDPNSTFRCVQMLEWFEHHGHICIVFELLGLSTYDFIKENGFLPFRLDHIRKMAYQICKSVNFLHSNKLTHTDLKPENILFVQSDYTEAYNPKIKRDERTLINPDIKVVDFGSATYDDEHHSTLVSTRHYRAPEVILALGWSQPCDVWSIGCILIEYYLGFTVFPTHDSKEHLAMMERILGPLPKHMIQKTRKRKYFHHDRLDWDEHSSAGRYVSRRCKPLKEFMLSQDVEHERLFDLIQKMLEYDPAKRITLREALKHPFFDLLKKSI
Chain of ROCK-II (O75116 whole entry, species assumed): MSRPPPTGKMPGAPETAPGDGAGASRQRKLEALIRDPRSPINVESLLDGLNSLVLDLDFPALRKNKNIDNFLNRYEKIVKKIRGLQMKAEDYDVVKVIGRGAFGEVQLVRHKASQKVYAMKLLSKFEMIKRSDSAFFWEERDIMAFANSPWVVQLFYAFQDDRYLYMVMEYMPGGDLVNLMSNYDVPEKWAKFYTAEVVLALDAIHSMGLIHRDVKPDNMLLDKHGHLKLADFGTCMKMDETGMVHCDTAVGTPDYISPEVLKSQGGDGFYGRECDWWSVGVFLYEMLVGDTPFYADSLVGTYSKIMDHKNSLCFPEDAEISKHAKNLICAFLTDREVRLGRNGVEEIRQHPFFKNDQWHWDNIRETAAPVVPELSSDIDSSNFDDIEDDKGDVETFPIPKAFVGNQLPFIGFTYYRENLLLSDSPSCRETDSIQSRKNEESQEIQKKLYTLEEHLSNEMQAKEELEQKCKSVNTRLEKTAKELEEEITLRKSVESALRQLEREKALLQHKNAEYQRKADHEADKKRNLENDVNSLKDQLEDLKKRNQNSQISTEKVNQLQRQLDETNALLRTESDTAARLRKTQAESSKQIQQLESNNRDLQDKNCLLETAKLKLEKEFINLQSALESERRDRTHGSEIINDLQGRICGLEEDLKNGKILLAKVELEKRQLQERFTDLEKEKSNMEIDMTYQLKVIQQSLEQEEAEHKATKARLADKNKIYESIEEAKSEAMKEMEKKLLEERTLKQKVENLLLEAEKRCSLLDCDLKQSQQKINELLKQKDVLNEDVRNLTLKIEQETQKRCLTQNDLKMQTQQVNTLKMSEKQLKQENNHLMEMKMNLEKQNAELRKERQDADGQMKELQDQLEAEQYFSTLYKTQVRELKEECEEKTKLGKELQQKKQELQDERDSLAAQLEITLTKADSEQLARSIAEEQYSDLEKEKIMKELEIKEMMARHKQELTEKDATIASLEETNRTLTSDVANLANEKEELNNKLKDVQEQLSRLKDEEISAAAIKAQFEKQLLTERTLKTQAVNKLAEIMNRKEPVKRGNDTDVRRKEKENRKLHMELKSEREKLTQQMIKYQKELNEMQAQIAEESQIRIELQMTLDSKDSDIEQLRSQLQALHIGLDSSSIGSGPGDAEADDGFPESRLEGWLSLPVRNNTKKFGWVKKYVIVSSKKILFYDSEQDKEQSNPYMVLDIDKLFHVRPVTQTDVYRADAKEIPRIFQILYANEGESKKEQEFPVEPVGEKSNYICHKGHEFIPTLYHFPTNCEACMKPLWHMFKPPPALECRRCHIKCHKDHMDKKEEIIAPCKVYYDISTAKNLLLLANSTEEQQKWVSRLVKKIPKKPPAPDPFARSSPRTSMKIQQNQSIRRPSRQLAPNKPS
Chain of Akt3 (Q9Y243 whole entry): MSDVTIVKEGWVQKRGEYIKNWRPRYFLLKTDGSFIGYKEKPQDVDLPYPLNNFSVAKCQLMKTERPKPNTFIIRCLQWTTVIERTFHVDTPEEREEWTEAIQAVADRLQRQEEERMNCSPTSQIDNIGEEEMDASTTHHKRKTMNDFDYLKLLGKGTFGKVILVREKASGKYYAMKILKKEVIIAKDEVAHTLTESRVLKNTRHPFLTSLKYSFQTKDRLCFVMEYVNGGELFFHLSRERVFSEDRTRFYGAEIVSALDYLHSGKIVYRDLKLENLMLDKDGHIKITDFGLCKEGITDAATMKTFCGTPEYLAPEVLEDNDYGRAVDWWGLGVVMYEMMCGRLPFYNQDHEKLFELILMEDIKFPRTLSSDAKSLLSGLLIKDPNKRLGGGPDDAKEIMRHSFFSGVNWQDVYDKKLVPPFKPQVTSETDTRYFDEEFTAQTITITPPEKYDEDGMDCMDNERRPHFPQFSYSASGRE
Chain of Clk4 (Q9HAZ1 whole entry): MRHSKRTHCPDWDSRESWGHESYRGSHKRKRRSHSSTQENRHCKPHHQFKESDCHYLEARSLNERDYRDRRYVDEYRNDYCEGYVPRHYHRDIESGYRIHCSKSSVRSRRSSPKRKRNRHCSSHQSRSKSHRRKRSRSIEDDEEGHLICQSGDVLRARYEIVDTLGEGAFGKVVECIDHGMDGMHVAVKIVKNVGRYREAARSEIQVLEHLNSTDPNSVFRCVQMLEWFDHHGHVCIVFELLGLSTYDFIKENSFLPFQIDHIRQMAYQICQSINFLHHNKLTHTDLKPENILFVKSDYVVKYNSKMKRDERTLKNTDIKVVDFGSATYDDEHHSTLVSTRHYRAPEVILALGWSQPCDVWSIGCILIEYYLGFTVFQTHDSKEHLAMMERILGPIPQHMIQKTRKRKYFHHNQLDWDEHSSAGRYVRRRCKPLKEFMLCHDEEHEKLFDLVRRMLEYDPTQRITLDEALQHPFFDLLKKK

For `CN(C)CCOc1cc(-c2cn[nH]c2)ccc1NC(=O)C1COc2ccccc2O1` (centres unmarked) [Compound 5], the inhibition at 3 µM in test [1], in [4], in test [5], in test [10] and in [13] was over 50% each time. Moreover, the “inhibition of Rho kinase in the TM tissue (p-MLC Western blot)” value in [2] is reported as “greater than 90%”. Besides, the IC50 (usually the concentration that inhibits the measured activity by half) was about 1000 nM in test [3]; about 1000 nM in [7]; about 1000 nM in [8]; about 3 nM in test [9]; about 3 nM in [11]. The compound also registered an off-target hit rate in [6] (353 kinases, hits = inhibition greater than 50%) of 1.4%. For the same compound, the “inhibition of all other kinases of the panel” value in test [6] (single-point, no or very low inhibition) is listed as under 10%. In addition, in test [12], the “increase of aqueous humor outflow facility” value was 70–80%.
